Data on three molecules can be found in patent US5674881A, “Quaternary ammonium salts of aromatic amine compounds, their preparation and pharmaceutical compositions in which they are present” (Elf Sanofi, priority 1992, dated 1997).

Assay [1] addresses T1, substance P receptors on rat cortex (Rattus norvegicus, UniProt P14600).
T1 construct: in tests performed on rat cortex; from tissue; host or cells: rat cortex
The assay can be described thus: antagonism of the binding of substance P to its receptor, rat cortex. On the procedure:
(§1) Thus the compounds according to the invention antagonize the binding of substance P to its receptor with a Ki of between 0.1 and 800 nM in tests performed on rat cortex and with a Ki of between 0.01 and 30 nM in tests performed on the lymphoblastic cell line IM9.

Assay [2] addresses T2, substance P receptors on human cells of the IM9 line (Homo sapiens, UniProt P25103).
T2 construct: in tests performed on the lymphoblastic cell line IM9; endogenous in cells; host or cells: IM9 (human lymphoblastic cell line)
The assay is described as follows: antagonism of the binding of substance P to its receptor, lymphoblastic cell line IM9. The procedure:
as §1

The test system of assay [3] is neurokinin receptors. The assay is described as follows: affinity for the neurokinin receptors. In kind it is binding.
Assay [4] deals with substance P. The assay is described as follows: substance P antagonism.
Assay [5] concerns the target substance P receptors (rat receptor). As to conditions: 3H-SP binding on rat cortical membranes, Snider et al. 1991; cited from earlier work.
Assay [6] addresses substance P receptors (bovine receptor). As to conditions: 3H-SP binding on bovine caudal membrane, Snider et al. 1991; cited from earlier work.
For assay [7], the system named is substance P receptors, IM9 cells. Particulars: substance P binding, Gitter et al. 1991; cited from earlier work.
The test system of assay [8] is substance P receptors, U373 MG cells. Particulars: substance P binding, Gitter et al. 1991; cited from earlier work.
Assay [9] concerns NK1 receptor. Particulars: agonist; D. Regoli 1988 and 1989; cited from earlier work.

T2 sequence (P25103 whole entry): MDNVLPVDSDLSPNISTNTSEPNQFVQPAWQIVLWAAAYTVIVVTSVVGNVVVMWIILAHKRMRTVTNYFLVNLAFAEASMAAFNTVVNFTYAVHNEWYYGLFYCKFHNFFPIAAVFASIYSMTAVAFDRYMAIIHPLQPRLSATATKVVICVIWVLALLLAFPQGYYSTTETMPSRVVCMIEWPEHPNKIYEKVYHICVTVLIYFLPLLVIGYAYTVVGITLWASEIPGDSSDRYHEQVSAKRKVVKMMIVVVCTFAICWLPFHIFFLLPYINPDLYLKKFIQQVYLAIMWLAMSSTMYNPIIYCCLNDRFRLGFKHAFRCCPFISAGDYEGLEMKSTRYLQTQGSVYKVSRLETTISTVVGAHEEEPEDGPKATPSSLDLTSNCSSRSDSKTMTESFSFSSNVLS
T1 sequence (P14600 whole entry): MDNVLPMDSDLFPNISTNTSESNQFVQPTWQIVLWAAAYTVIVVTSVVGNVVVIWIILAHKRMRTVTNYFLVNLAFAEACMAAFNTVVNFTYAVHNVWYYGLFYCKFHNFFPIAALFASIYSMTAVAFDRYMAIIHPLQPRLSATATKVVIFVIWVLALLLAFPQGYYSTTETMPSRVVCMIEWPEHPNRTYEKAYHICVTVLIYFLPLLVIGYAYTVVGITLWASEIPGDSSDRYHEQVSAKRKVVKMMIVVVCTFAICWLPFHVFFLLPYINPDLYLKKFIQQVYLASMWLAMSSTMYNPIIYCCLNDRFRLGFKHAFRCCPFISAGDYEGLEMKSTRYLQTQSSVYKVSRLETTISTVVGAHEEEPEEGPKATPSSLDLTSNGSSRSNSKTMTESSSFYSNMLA

Broadly, the Ki is the dissociation constant of the complex between target and ligand, obtained from inhibition or displacement. For the molecule `CC(C)Oc1cccc(CC(=O)N(C)CC(CCN2CCC(c3ccccc3)CC2)c2ccc(Cl)c(Cl)c2)c1` (stereo not drawn) [(I'b), N-Methyl-N-[4-(4-phenylpiperidin-1-yl)-2-(3,4-dichlorophenyl)butyl]-3-isopropoxyphenylacetamide], the Ki in assay [1] and in assay [2] was 0.3 to 0.6 nM throughout. Besides, the “affinity for the neurokinin receptors” value in assay [3] was “very high affinity”. Also, the “substance P antagonism” value in [4] is given as “powerful substance P antagonists”.

Turning to `COc1ccccc1CN[C@H]1C2CCN(CC2)[C@H]1C(c1ccccc1)c1ccccc1` [CP 96,345], the Ki in assay [5] was 240 nM; in [6], 3 nM; in assay [7] it was 0.4 nM; in assay [8], 0.4 nM.

Turning to [Sar^9, Met-(O2)^11 ]-SP, in assay [9], the “selectivity for the NK1 receptor” value is given as “selective”.
